Patent US20070053950A1, “Composition of polymer microcapsules of biocide for coating material” (priority 2005, published 2007)

Legend:
Assay type in all cases: cell-based
Chlorella fusca = test: Filter paper bioassay, antialgal activity of biocide dispersed in paint; settings: around 5 wt % Irgarol in paint; taken after 0, 15 and 30 days of dispersion; even after 100 days
Text: (§1) W. et.al., Amer. J. Clin. Pathol., 45 (1966) p 493-496 and Thomberry, H. H. Phytopathology 40 (1950) p 419-420). […] The antifungal activity of all the composition samples is indicated by zone of inhibition that is developed around the filter paper discs against the vegetative growth after the spore germination. […] Similar type of results are obtained when microcapsules stored in paint for 12 days and 30 days are taken for such biocidal analysis. The antialgal activity of microencapsulated Irgarol and unencapsulated Irgarol against algal strains (Oscillatoria tenius and Chlorella fusca) is assessed by filter paper bioassay by method as described above for fungal activity. Unencpasulated Irgarol and microcapsules of Irgarol are dispersed in paint such that the concentration of Irgarol is around 5 wt % based on weight of paint and taken for analysis after 0 days, 15 days and 30 days of dispersion period.

Oscillatoria tenius = test: as above; settings: around 5 wt % Irgarol in paint; taken after 0, 15 and 30 days of dispersion; even after 100 days
Text: as §1

[1] = system: fungal strain Aspergillus niger (NRRL337); test: Filter paper bioassay, antifungal activity of biocide dispersed in paint (zone of inhibition); settings: sample taken after 0 days of dispersion
Description: Microcapsules of Zinc Pyrithione and unencpasulated Zinc Pyrithione are dispersed in paint such that the concentration of Zinc Pyrithione is around 5 wt % based on weight of paint and taken for analysis after 0 days, 12 days and 30 days of dispersion period. The antifungal activity of all the composition samples is indicated by zone of inhibition that is developed around the filter paper discs against the vegetative growth after the spore germination. The zone of inhibition is measured after 2 days and 100 days after the day on which samples are taken for filter paper bioassay.

Compound	inhibitory activity against algal strain (Chlorella fusca)	inhibitory activity against algal strain (Oscillatoria tenius)	Zone of inhibition (mm) (after 2 days) A ([1]; around 5 wt % Zinc Pyrithione in paint, zone measured after 2 days)	Zone of inhibition (mm) (after 100 days) B ([1]; around 5 wt % Zinc Pyrithione in paint, zone measured after 100 days)	% Reduction in inhibition zone C = [(A − B) × 100]/A ([1]; around 5 wt % biocide in paint, from 2 days to 100 days) [%]
CSc1nc(NC2CC2)nc(NC(C)(C)C)n1 [unencapsulated irgarol, Irgarol]	very strong inhibitory activity	very strong inhibitory activity	–	–	–
Zinc Pyrithione [Unencapsulated Zinc Pyrithione]	–	–	41	32	21.9
